# Results reported in patent US20170209427A1, “USE OF LAQUINIMOD TO DELAY HUNTINGTON'S DISEASE PROGRESSION” (Teva Pharmaceutical Industries, Ltd., priority 2013, published 2017).
# Assays:
# patients with HD = assay: Phase II randomized, double-blind, placebo-controlled clinical trial of laquinimod in Huntington's disease; format: in vivo, human
# Method: A phase II, multi-centered, multinational, randomized, parallel-group, double-blinded, placebo-controlled study is conducted to evaluate the safety and efficacy of laquinimod (0.5, 1.0 and 1.5 mg/day) versus placebo in patients with HD.
# This study includes 4 treatment arms, with approximately 100 patients per treatment arm and approximately 400 patients in total. The study is conducted in approximately 30 centers in Canada, USA and Europe.
# The study population is comprised of patients with adult onset HD, with a cytosine-adenosine-guanine (CAG) repeat length between 40 and 49, inclusive. The basic eligibility criteria selects a population with symptoms of HD, as assessed by a Unified HD Rating Scale—Total Motor Score (UHDRS-TMS)>5, but with a largely retained functional capacity, as assessed with a Unified HD Rating Scale—Total Functional Capacity (UHDRS-TFC) score≧8.
# The dose levels of laquinimod are 0.5 mg/day, 1.0 mg/day and 1.5 mg/day. Every patient takes 3 capsules once daily at the same time of the day for the whole study period.
# The Laqunimod Treatment Arms are as follows: • 1.5 mg LAQ/day: patients randomized to laquinimod 1.5 mg qd (i.e., once daily) treatment arm receive 3 capsules of 0.5 mg laquinimod daily. • 1.0 mg LAQ/day: patients randomized to laquinimod 1.0 mg qd treatment arm receive 2 capsules of 0.5 mg laquinimod and 1 capsule of matching placebo daily. • 0.5 mg LAQ/day: patients randomized to laquinimod 0.5 mg qd treatment arm receive 1 capsule of 0.5 mg laquinimod and 2 capsules of matching placebo daily.
# The 0.5 mg laquinimod capsules were prepared using 0.534 mg of laquinimod sodium per capsule (which is equivalent to 0.5 mg of laquinimod acid). The capsules were prepared using a blend proportional to the 0.6 mg capsules described in PCT International Application No. PCT/US2007/013721 (WO 2007/146248). The capsules were prepared according to the method described in PCT international Application No. PCT/US2007/013721 (WO 2007/146248), which is hereby incorporated by reference into this application.
# This is a multinational, multicenter, randomized, double-blind, parallel-group, placebo-controlled study to evaluate the safety and clinical effect of daily oral administration of laquinimod (0.5 mg, 1.0 mg, or 1.5 mg) in patients with HD.
# Patients are treated with laquinimod for 12 months, and safety and efficacy are assessed after 1, 3, 6, 9 and 12 months of treatment. Eligible subjects are randomized in a 1:1:1:1 ratio into one of the following treatment arms: • 1. Laquinimod capsule 0.5 mg (Total of 0.5 mg) • 2. Laquinimod capsules 0.5 mg×2 (Total of 1.0 mg) • 3. Laquinimod capsules 0.5 mg×3 (Total of 1.5 mg) • 4. Matching placebo
# The following assessments are performed at the specified time points: • 1. Eligibility criteria is reviewed and confirmed at screening and baseline. • 2. Vital signs are measured at each study visit. • 3. A physical examination is performed at each study visit. • 4. The following safety clinical laboratory tests are performed: • a) Complete blood count (CBC) with differential at each study visit. • b) Serum chemistry (including electrolytes, liver enzymes, urea, creatinine, glucose, total protein, albumin, direct and total bilirubin, Creatinephosphokinase (CPK), serum conventional C-reactive protein (CRP), fibrinogen and pancreatic amylase)—at all scheduled visits. […]
# [1] = test system: patients with relapsing remitting MS; conditions: after 1 year of treatment; cited from earlier work
# clinical = assay: clinical; design: species or system humans; conditions: human, in vivo
# CYP3A4 = target: T1, CYP3A4 (Homo sapiens, UniProt P08684); assay: Metabolism of laquinimod in the liver; format: in vivo; conditions: humans
# T1 construct: from tissue; host or cells: human liver (in vivo)
# T1 sequence (P08684 whole entry): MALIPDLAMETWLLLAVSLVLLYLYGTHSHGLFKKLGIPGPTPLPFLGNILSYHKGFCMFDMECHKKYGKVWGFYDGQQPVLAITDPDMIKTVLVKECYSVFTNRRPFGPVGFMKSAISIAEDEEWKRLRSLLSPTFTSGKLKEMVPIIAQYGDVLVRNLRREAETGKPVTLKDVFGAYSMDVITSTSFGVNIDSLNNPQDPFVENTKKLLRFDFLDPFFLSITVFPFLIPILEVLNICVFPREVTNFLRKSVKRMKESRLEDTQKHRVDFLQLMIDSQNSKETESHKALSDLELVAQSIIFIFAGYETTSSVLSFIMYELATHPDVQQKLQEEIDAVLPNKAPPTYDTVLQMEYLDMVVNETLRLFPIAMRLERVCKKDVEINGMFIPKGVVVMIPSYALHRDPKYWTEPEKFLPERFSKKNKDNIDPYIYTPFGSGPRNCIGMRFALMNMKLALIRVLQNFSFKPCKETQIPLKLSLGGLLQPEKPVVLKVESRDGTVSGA
# [2] = 0.5, 1.0 and 1.5 mg/day oral vs Placebo Arm, 12 months
structure (smiles),measurement,setting,value
CCN(C(=O)c1c(O)c2c(Cl)cccc2n(C)c1=O)c1ccccc1 [laquinimod],Progression (rate of change) of CIBIC-Plus global score,patients with HD; [2],slower
same,Progression (rate of change) of HADS,patients with HD; [2],slower
same,Progression (rate of change) of PBA (short),patients with HD; [2],slower
same,Progression (rate of change) of Physical Performance Test (PPT) score,patients with HD; [2],slower
same,Progression (rate of change) of Q-motor assessments score,patients with HD; [2],slower
same,Progression (rate of change) of UHDRS-FA score,patients with HD; [2],slower
same,Progression (rate of change) of UHDRS-TMS,patients with HD; [2],slower
same,Progression (rate of change) of cognitive assessment battery (CAB),patients with HD; [2],slower
same,"Progression (rate of change) of deterioration of functional capacity, UHDRS-TFC score",patients with HD; [2],slower
same,Progression (rate of change) of work productivity and quality of life (HD-QoL),patients with HD; [2],slower
same,"Progression (rate of change) of brain atrophy (whole brain, caudate, white matter, ventricular volume)","patients with HD; 0.5, 1.0 and 1.5 mg/day oral vs Placebo Arm, MRI, 12 months",slower
same,treatment of symptomatic early HD patients,"patients with HD; 0.5, 1.0 and 1.5 mg/day oral, UHDRS-TMS >5 and/or UHDRS-TFC ≧8 at baseline",effective
same,effect on brain atrophy and disability progression,[1],benefit
same,Vd,clinical,~10 L
same,fraction unbound,clinical,< 0.02
same,half-life,clinical,~3.33 days
same,bioavailability,clinical; po,~90%
same,oral clearance,clinical; po,~0.09 L/h
same,metabolism by CYP3A4 in the liver,CYP3A4,extensively metabolized
